Reference: PubChem BioAssay (NCI)
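48-hour exposure; five concentrations; linearly interpolated endpoints. GI50: concentration for 50% inhibition of growth. TGI: concentration producing complete growth inhibition.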

Experiments:
Experiment in all cases: growth of human tumour cells (NCI), 48 h
OVCAR-8 ovarian = test system: OVCAR-8 ovarian
OVCAR-4 ovarian = test system: OVCAR-4 ovarian
SK-OV-3 ovarian = test system: SK-OV-3 ovarian
SF-295 CNS = test system: SF-295 CNS
A498 renal = test system: A498 renal
HS 578T breast = test system: HS 578T breast
OVCAR-5 ovarian = test system: OVCAR-5 ovarian
M14 melanoma = test system: M14 melanoma
SK-MEL-5 melanoma = test system: SK-MEL-5 melanoma
MOLT-4 leukemia = test system: MOLT-4 leukemia

| Structure (SMILES) | TGI (OVCAR-8 ovarian) [µM] | TGI (OVCAR-4 ovarian) [µM] | TGI (SK-OV-3 ovarian) [µM] | TGI (SF-295 CNS) [µM] | TGI (A498 renal) [µM] | TGI (HS 578T breast) [µM] | TGI (OVCAR-5 ovarian) [µM] | TGI (M14 melanoma) [µM] | TGI (SK-MEL-5 melanoma) [µM] | TGI (MOLT-4 leukemia) [µM] | GI50 (OVCAR-8 ovarian) [µM] | GI50 (OVCAR-4 ovarian) [µM] | GI50 (SK-OV-3 ovarian) [µM] | GI50 (SF-295 CNS) [µM] | GI50 (A498 renal) [µM] | GI50 (HS 578T breast) [µM] | GI50 (OVCAR-5 ovarian) [µM] | GI50 (M14 melanoma) [µM] | GI50 (SK-MEL-5 melanoma) [µM] | GI50 (MOLT-4 leukemia) [µM] |
| --- | --- | --- | --- | --- | --- | --- | --- | --- | --- | --- | --- | --- | --- | --- | --- | --- | --- | --- | --- | --- |
| CS(=O)(=O)CC(=O)c1ccccc1 | > 100 | > 100 | > 100 | > 100 | > 100 | > 100 | > 100 | > 100 | > 100 | > 100 |  |  |  |  |  |  |  |  |  |  |
| O=C1OCC2=C1C(c1ccc(Cl)c(Cl)c1)c1cc3c(cc1N2CCO)CCC3 (configuration not stated) | 8.27 | 21.4 | 6 | 1.5 | 1.37 | 14.3 | 15.3 | 6.53 | 7.22 | 27.8 | 0.221 | 0.326 | 0.211 | 0.108 | 0.0919 | 0.232 | 0.336 | 0.2 | 0.181 | 0.628 |
| O=c1ssc(Cl)c1Cl | > 10 | > 10 | > 10 | > 10 | > 10 | > 10 | > 10 | > 10 | > 10 | 4.9 |  |  |  |  |  |  |  |  |  |  |
| COc1ccc(C2=NN(C(=O)c3cc(OC)c(OC)c(OC)c3)C(c3ccc(N(C)C)cc3)C2)cc1 (configuration not stated) | > 100 | > 100 | 58.2 | 40.4 | 9.23 | 1.56 | > 100 | > 21 | 4.88 | > 100 | 2.42 | 0.548 | 0.463 | 0.339 | 0.337 | 0.266 | 0.732 | 0.496 | 0.424 | 3.87 |
| Cc1ccc(NC(=O)c2sc3nc4c(cc3c2N)C(=O)CCC4)cc1C | > 100 | > 100 | > 100 | > 100 | 0.658 | > 100 | > 100 | > 100 | 21.6 | 76.2 | 3.45 | 1.13 | 0.533 | 0.358 | 0.198 | 0.442 | 3.16 | 0.602 | 0.418 | 6.41 |
| O=c1oc2ccc(Br)cc2c(=O)n1-c1ccc(I)cc1F | 5.98 | 13.7 | 2.13 | 3.12 | 0.377 | 1.36 | > 100 | 4.39 | 0.642 | 3.22 | 0.362 | 0.389 | 0.271 | 1.5 | 0.15 | 0.287 | 3.59 | 0.416 | 0.246 | 0.579 |
| COc1cc(-c2c(C#N)c(N)nc(N3CCOCC3)c2C#N)cc(OC)c1OC | > 100 | > 100 | > 100 | > 100 | > 100 | > 100 | > 100 | > 100 | > 100 | > 100 | > 100 | > 100 | 81.1 | > 100 | > 100 | 94 | 27.2 | > 100 | > 100 | > 100 |
| COc1cc(C(=O)N/N=C/c2ccc(N(C)C)cc2)cc(OC)c1OC | > 100 | > 100 | > 31.1 |  | 0.799 | > 100 | > 100 | > 100 | 1.16 | 19.4 | 0.599 | 0.824 | 0.478 | 0.288 | 0.172 | 0.546 | 3.29 | 0.335 | 0.198 | 0.729 |
| CCCCCCCCn1ccc2cc(NC(=O)Cn3cc(CN4CCCCC4)nn3)ccc21 | 9.3 | 14.3 | 3.97 | 3.65 | 19.5 | 4.84 | 3.71 | 3.43 | 3.16 | 7.23 | 2.98 | 3.66 | 1.89 | 1.81 | 5.05 | 1.96 | 1.78 | 1.78 | 1.77 | 2.59 |
| CC(=O)OC12COC1CC(O)C1(C)C(=O)C(O)C3=C(C)C(O)CC(O)(C(OC(=O)c4ccccc4)C21)C3(C)C (configuration not stated) | > 100 | > 100 | > 100 | > 100 | > 100 | 6.15 | > 42.2 | > 100 | 29.5 | > 100 |  |  |  |  |  | 1.36 |  |  |  |  |
| Cc1ccc2c(c1)S(=O)(=O)c1ccc3ccccc3c1N2 | > 100 | > 100 | > 100 | > 100 | > 100 | > 100 | > 100 | > 100 | > 100 | > 100 |  |  |  |  |  |  |  |  |  |  |
| COc1cc(/C=C/C(=O)N2CCN(C(=O)c3cc(OC)c(OC)c(OC)c3)CC2)ccc1OCCCOc1cc2c(cc1OC)C(=O)N1CCC[C@H]1C=N2 |  | 27.5 | > 71.3 | 0.875 | 0.51 | 0.841 |  | 1.42 | 0.415 | 1.59 | 0.345 | 1.53 | 0.551 |  | 0.205 | 0.31 |  | 0.346 | 0.193 | 0.218 |
| O=C1c2ccccc2-c2c1c1ccccc1c(=O)n2CCCNCCCCNCCCN1C(=O)c2ccccc2C2C(=O)c3ccccc3C21 (configuration not stated) | 0.986 | 10.3 | 2.81 | 0.872 | 2.21 | 2.08 | 1.19 | 1.53 | 3.93 | 0.711 | 0.0241 | 0.779 | 1.02 | 0.0647 | 0.628 | 0.739 | 0.57 | 0.643 | 0.939 | < 0.005 |
| CCOc1cccc(-c2nc(N)nc(Nc3ccccc3SSc3ccccc3Nc3nc(N)nc(-c4cccc(OCC)c4)n3)n2)c1 | > 100 | > 100 | > 100 | > 100 | > 100 | > 100 | 44.1 | > 100 | > 100 | > 100 | 4.43 | 5.87 | 4.87 | 3.92 | 8.24 | 6.37 | 3.42 | 4.1 | 6.8 | 2.61 |
| O=C1c2cccc(NCCN=Cc3ccccc3O)c2C(=O)c2c(NCCN=Cc3ccccc3O)cccc21 | 2.47 | 2.39 | 4.99 | 1.88 | 2.6 | 3.98 | 5.43 | 5.63 | 4.03 | 1.56 | 0.369 |  | 1.5 | 0.409 | 1.11 | 0.838 | 1.41 | 1.88 | 1.55 | 0.353 |
| O=C(O)c1ccc(C(=O)O)c(C(=O)Nc2ccc3c(c2)C(=O)c2ccccc2-3)c1 | > 100 | > 100 | > 100 | > 100 | > 100 | > 100 | > 100 | > 100 | > 100 | > 100 |  |  |  |  |  |  |  |  |  |  |
| COc1ccc(/C=C2\C=C(c3ccccc3)N(CCc3ccccc3)C2=O)cc1OC | 22.5 | 87 | 18.8 | 24 | 5.32 | 23.4 | 73.1 | > 100 | 94.5 |  | 6.09 | 3.15 | 4.04 | 5.95 | 2.25 | 3.66 | 6.37 | 8.84 | 9.29 |  |
| CC(=O)c1cc(C(=O)c2ccc3c(c2)Sc2ccccc2N3)c2cc(C)ccn12 | > 100 | > 100 | > 100 | 4.15 | > 100 | > 100 |  | > 100 | 5.56 | > 100 | 0.451 | 1.29 | 0.189 | 0.036 | 0.0431 | 0.084 |  | 0.0593 | 0.122 | 0.329 |
| CC1(C)[C@@H](OC(=O)CCC(=O)O)CC[C@]2(C)[C@H]3C(=O)C=C4[C@@H]5C[C@@](C)(C(=O)O)CC[C@]5(C)CC[C@@]4(C)[C@]3(C)CC[C@@H]12 | 154 | 168 | 127 | 65 | 68 | 253 | 125 | 129 | 86.8 |  | 59.1 | 64.6 | 59.4 | 48.7 | 49.2 | 49.6 | 83.2 | 58.4 | 56 |  |
| COc1ccc(/C=C/C(=O)c2ccc(OC)c(OC)c2)cc1O | 10.9 | 20.8 | 45 |  | 20.3 | 90.9 | 28.9 | 23.3 | 18.8 | 26.1 | 2.98 | 8.45 | 6.51 |  | 4.84 | 11 | 4.94 | 10.9 | 5.9 | 4.32 |
